Test results reported in article PMC11269185, “Glutamate acts on acid-sensing ion channels to worsen ischaemic brain injury” (Nature, 2024).

Experiments:
Assay type in all cases: binding
[1] = target: T1, ASIC1a (acid-sensing ion channel 1a) (Homo sapiens, UniProt P78348); test: microscale thermophoresis in cell lysate, pH […] ([…] at pH […]); patch clamp; parameters: gene ASIC1; GFP-tagged hASIC1a in lysates of transfected HEK293T cells
T1 sequence (P78348 1-528): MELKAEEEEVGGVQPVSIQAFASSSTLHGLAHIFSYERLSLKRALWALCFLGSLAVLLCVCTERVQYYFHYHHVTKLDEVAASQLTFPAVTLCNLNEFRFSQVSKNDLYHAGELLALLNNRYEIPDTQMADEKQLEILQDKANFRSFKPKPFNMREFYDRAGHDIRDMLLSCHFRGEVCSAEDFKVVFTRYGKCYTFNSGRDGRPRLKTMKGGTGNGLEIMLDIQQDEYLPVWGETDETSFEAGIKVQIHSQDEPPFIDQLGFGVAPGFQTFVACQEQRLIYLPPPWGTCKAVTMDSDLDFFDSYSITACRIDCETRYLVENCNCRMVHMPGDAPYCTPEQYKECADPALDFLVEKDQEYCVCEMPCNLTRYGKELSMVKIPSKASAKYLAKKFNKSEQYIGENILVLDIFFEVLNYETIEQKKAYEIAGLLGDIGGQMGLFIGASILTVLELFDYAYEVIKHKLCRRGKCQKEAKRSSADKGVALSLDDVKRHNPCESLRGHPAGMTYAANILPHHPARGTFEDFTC

[2] = target: T1, ASIC1a (acid-sensing ion channel 1a); test: microscale thermophoresis in cell lysate, pH […]; patch clamp; parameters: gene ASIC1; GFP-tagged ASIC1a in HEK293T lysate
[3] = target: T1, ASIC1a (acid-sensing ion channel 1a); test: microscale thermophoresis in cell lysate, pH […]; patch clamp (IC50 […] against glutamate potentiation); parameters: gene ASIC1; eGFP-tagged wild-type ASIC1a in HEK293T lysate

`N[C@@H](CCC(=O)O)C(=O)O` [glutamate] gave a Kd [1] of 113000 nM.
Work on `O=C(O)C1CN(C(c2ccccc2)P(=O)(O)O)CCN1` (stereo not drawn) [LK-2] yielded a Kd [2] of 1900 ± 400 nM.
With `O=C(O)[C@@H]1C[C@H](CP(=O)(O)O)CCN1` [CGS19755] the Kd [3] was 1100 ± 200 nM.
